The target of one data set is hERG1 potassium channel (Homo sapiens, UniProt Q12809). The data set can be described thus: in vitro. The procedure:
Mammalian cells expressing the hERG1 potassium channel were dispensed into 384-well planar arrays and hERG tail-currents were measured by whole-cell voltage-clamping. A range of concentrations (TBD) of the test compounds were then added to the cells and a second recording of the hERG current was made. The percent change in hERG current was calculated.
The experiments were performed on an IonWorks™ FIT instrument (Molecular Devices Corporation), which automatically performs electrophysiology measurements in 48 single cells simultaneously in a specialised 384-well plate (PatchPlate™). All cell suspensions, buffers and test compound solutions were at room temperature during the experiment.
The cells used were Chinese hamster ovary (CHO) cells stably transfected with hERG (cell-line obtained from Cytomyx, UK). A single-cell suspension was prepared in extracellular solution (Dulbecco's phosphate buffered saline with calcium and magnesium pH 7-7.2) and aliquots were added automatically to each well of a PatchPlate™. The cells were then positioned over a small hole at the bottom of each well by applying a vacuum beneath the plate to form an electrical seal. The vacuum was applied through a single compartment common to all wells which were filled with intracellular solution (buffered to pH 7.2 with HEPES). The resistance of each seal was measured via a common ground-electrode in the intracellular compartment and individual electrodes placed into each of the upper wells.
Electrical access to the cell was then achieved by circulating a perforating agent, amphotericin, underneath the PatchPlate™ and then measuring the pre-compound hERG current. An electrode was positioned in the extracellular compartment and a holding potential of −80 mV for 15 sec was applied. The hERG channels were then activated by applying a depolarising step to +40 mV for 5 sec and then clamped at −50 mV for 4 sec to elicit the hERG tail current, before returning to −80 mV for 0.3 s.
A test compound was then added automatically to the upper wells of the PatchPlate™ from a 96-well microtitre plate containing a range of concentrations of each compound. Solutions were prepared by diluting DMSO solutions of the test compound into extracellular buffer. The test compound was left in contact with the cells for 300 sec before recording currents using the same voltage-step protocol as in the pre-compound scan. […] Each concentration was tested in 4 replicate wells on the PatchPlate™.
Post-compound currents were then expressed as a percentage of pre-compound currents and plotted against concentration for each compound. Where concentration-dependent inhibition is observed, the data are fitted to the following equation and an IC50 value calculated: […]
An IC50 was reported if concentration-dependent inhibition is observed. The standard error (SE) of the IC50 model and the number of data-points used to determine IC50 was also reported.

In data set [1] the target is T1, hERG channel (Homo sapiens, UniProt Q12809). The data set can be described thus: Automated patch clamp (IonFlux) on AC10 cardiomyocytes stably expressing hERG. As to conditions: for effect on hERG tail currents / electrophysiology (in words): AC10 cardiomyocytes. (In general: Patch clamp records ionic current or voltage across a cell membrane.)
In data set [2] the target is T1, hERG channel. Put plainly: Predictor hERG fluorescence polarization assay.
Method: Compounds that bind to the hERG channel proteins were identified by their ability to displace the tracer (Predictor hERG Tracer Red) and decrease the fluorescence polarization. The Tracer Red ligand was stored in 100% DMSO and diluted to 8 nM in assay buffer (50 mM Tris-HCl, 1 mM MgCl2, 10 mM KCl, 0.05% Pluronic F127, pH 7.4, 4° C.) on the day of the experiment. Test samples and controls were diluted in assay buffer to 16 concentrations with half-log intervals. Cell membranes were removed from the −80° C. freezer and placed on ice after defrosting. Membranes working solution protein concentration was 0.3 mg/mL. […] IC50 values were derived by fitting a sigmoidal function to concentration-response data, where concentration-dependent inhibition was observed. All IC50 data were calculated and analyzed using GraphPad Prism 6 (GraphPad Software).
For data set [3] the following is noted: clinical trial, placed on clinical hold by the FDA; cited from earlier work.
The target of a further data set is hERG1 (Homo sapiens, UniProt Q12809). The data set can be described thus: FluxOR potassium channel assay in HEK 293 cells stably expressing hERG1.
hERG1, sequence (Q12809 whole entry): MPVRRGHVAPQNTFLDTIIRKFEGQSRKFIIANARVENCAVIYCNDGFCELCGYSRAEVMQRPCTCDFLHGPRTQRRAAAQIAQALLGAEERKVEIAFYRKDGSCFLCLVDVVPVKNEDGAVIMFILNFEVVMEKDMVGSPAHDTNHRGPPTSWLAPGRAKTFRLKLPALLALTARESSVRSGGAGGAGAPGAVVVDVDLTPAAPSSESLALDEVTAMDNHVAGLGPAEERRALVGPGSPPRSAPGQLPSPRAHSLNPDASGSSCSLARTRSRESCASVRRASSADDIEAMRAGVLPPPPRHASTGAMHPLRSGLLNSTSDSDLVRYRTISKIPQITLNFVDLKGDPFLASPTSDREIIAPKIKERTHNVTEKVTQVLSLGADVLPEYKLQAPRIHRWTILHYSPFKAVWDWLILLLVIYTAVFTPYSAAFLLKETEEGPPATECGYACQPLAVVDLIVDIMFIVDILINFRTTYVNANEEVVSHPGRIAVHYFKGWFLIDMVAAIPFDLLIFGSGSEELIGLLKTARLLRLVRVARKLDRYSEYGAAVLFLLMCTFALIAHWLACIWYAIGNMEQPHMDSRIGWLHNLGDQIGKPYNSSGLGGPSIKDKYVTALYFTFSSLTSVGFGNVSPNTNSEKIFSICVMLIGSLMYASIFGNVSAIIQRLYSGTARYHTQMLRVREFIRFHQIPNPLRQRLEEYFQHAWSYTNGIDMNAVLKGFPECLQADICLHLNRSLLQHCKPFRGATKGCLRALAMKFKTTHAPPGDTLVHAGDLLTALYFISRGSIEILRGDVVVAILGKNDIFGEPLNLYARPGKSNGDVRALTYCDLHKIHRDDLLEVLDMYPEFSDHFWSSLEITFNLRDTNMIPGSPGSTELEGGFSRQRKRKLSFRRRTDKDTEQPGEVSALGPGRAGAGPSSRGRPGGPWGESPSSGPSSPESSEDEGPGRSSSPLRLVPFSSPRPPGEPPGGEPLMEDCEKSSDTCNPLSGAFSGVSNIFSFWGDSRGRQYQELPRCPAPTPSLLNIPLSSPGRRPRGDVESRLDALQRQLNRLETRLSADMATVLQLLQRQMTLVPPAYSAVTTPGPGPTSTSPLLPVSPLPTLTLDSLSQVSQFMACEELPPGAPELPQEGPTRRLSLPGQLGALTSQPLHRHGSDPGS

T1 sequence (Q12809 whole entry): as above
hERG1 potassium channel, sequence (Q12809 whole entry): as above

Regarding `CC(=O)Oc1ccccc1C(=O)O` [Aspirin, acetyl salicylic acid], on hERG1 potassium channel (human), the inhibition at 300 sec, 0.0032 µM is -2.97%; the inhibition at 300 sec, 0.016 µM was -3.09%; the inhibition at 300 sec, 0.08 µM is -21%; the inhibition at 300 sec, 0.4 µM is -5.88%. In addition, on hERG1 potassium channel (human), the inhibition at 300 sec, 2 µM was -3.71% and the inhibition at 300 sec, 10 µM is -0.546%.

For `COc1nc(N)nc2c1ncn2[C@@H]1O[C@H](COP(=O)(N[C@@H](C)C(=O)OCC(C)(C)C)Oc2cccc3ccccc23)[C@@H](O)[C@@]1(C)O` (some centres unmarked) [BMS986094], the IC50 against hERG channel [1] was 266 nM; on hERG channel [2], 3.75 nM.

In the case of `COc1nc(N)nc2c1ncn2C1O[C@H](COP(=O)(N[C@H](C)C(=O)OCC(C)(C)C)Oc2cccc3ccccc23)[C@@H](O)[C@@]1(C)O` (stereo partly drawn) [BMS-986094, (2R)-neopentyl 2-(((((2R,3R,4R)-5-(2-amino-6-methoxy-9H-purin-9-yl)-3,4-dihydroxy-4-methyltetrahydrofuran-2-yl)methoxy)(naphthalen-1-yloxy)phosphoryl)amino)propanoate], at hERG channel [1], the IC50 was determined as 266 nM and the “effect on hERG tail currents / electrophysiology (in words)” value is listed as “potently blocks hERG tail currents”. Besides, the “effects on QT interval prolongation in patients (in words)” value in data set [3] was “nine patients in a clinical trial had to be hospitalized and one of them died”. Also, at hERG1, the “block of conductance of the potassium channel (in words)” value is “block conductance of the potassium channel”. For the same compound, the “inhibition of the potassium channel (in words)” value at hERG1 potassium channel (CHO cells stably transfected with hERG) is given as “inhibit the potassium channel”. At hERG1 potassium channel (human), the inhibition at 300 sec, 0.0032 µM came out at 18.2%; the inhibition at 300 sec, 0.016 µM was -4.94%; the inhibition at 300 sec, 0.08 µM is -8.97%; the inhibition at 300 sec, 0.4 µM is -5.33%. Besides, the inhibition at 300 sec, 10 µM against hERG1 potassium channel (human) turned out to be 23.3%. Besides, the IC50 on hERG channel [2] is 3 nM.

`Nc1nc2c(ncn2[C@@H]2O[C@H](CO)[C@@H](O)[C@H]2O)c(=O)[nH]1` [Guanosine, guanosine]: the “effect on hERG tail currents / electrophysiology (in words)” value at hERG channel [1] is “none of BMS-986094 metabolites demonstrates either hERG cavity binding or electrophysiology changes”. Moreover, on hERG1 potassium channel (human), the inhibition at 300 sec, 0.0032 µM turned out to be 0.711%; the inhibition at 300 sec, 0.016 µM was 6.12%; the inhibition at 300 sec, 0.08 µM is -3.46%; the inhibition at 300 sec, 0.4 µM came to 26.3%. Moreover, at hERG1 potassium channel (human), the inhibition at 300 sec, 2 µM is 0.453% and the inhibition at 300 sec, 10 µM was found to be 5.54%. Besides, the “displacement of the hERG-bound dye (in words)” value at hERG channel [2] was “no detectable effect on hERG blockage”.

As for `O=c1[nH]c2ccccc2n1C1CCN(CCCC(c2ccc(F)cc2)c2ccc(F)cc2)CC1` [Pimozide], at hERG1 potassium channel (human), the inhibition at 300 sec, 0.00032 µM came to 2.29%; the inhibition at 300 sec, 0.0016 µM came out at 4.56%; the inhibition at 300 sec, 0.008 µM came to 5.6%; the inhibition at 300 sec, 0.04 µM came out at 25.1%. Also, at hERG1 potassium channel (human), the inhibition at 300 sec, 0.2 µM came to 9.44% and the inhibition at 300 sec, 1 µM was determined as 83.2%.

`CC(C)NCC(O)c1ccc(NS(C)(=O)=O)cc1` (centres unmarked) [Sotalol]: on hERG1 potassium channel (human), the inhibition at 300 sec, 0.0032 µM was 1.69%; the inhibition at 300 sec, 0.016 µM is -0.73%; the inhibition at 300 sec, 0.08 µM was 20.4%; the inhibition at 300 sec, 0.4 µM is 10.9%. On hERG1 potassium channel (human), the inhibition at 300 sec, 2 µM amounted to 1.72% and the inhibition at 300 sec, 10 µM came to 0.95%.

`CS(=O)(=O)c1ccc(C2=C(c3ccccc3)C(=O)OC2)cc1` [rofecoxib]: the IC50 on hERG channel [1] was 15000 nM; on hERG channel [2], 5830 nM.

What is called inhibition is the drop in the measured response relative to a control, in per cent. In general, IC50 refers to the midpoint of a concentration-inhibition curve.

The record behind these values is patent US20150193575A1, “SYSTEMS AND METHODS OF SELECTING COMPOUNDS WITH REDUCED RISK OF CARDIOTOXICITY” (The Governors of the University of Alberta, priority 2013, published 2015).
